Source: patent US11780830B2, “Triazolone derivatives or salts thereof and pharmaceutical compositions comprising the same” (YUHAN CORPORATION, priority 2018, dated 2023)

Columns and labels:
Type in all cases: biochemical
recombinant human VAP-1 = target: T1, recombinant human VAP-1 (Homo sapiens, UniProt Q16853); experiment: Activity on recombinant human VAP-1, HRP-coupled Amplex Red hydrogen peroxide assay; conditions: substrate 1 mM benzylamine; compound incubated with enzyme at 37° C. for 30 minutes; pH 7.4; read-out: Inhibitory Activity (IC50, nM) human VAP-1
T1 construct: purchased R&D systems
T1 sequence (Q16853 1-763): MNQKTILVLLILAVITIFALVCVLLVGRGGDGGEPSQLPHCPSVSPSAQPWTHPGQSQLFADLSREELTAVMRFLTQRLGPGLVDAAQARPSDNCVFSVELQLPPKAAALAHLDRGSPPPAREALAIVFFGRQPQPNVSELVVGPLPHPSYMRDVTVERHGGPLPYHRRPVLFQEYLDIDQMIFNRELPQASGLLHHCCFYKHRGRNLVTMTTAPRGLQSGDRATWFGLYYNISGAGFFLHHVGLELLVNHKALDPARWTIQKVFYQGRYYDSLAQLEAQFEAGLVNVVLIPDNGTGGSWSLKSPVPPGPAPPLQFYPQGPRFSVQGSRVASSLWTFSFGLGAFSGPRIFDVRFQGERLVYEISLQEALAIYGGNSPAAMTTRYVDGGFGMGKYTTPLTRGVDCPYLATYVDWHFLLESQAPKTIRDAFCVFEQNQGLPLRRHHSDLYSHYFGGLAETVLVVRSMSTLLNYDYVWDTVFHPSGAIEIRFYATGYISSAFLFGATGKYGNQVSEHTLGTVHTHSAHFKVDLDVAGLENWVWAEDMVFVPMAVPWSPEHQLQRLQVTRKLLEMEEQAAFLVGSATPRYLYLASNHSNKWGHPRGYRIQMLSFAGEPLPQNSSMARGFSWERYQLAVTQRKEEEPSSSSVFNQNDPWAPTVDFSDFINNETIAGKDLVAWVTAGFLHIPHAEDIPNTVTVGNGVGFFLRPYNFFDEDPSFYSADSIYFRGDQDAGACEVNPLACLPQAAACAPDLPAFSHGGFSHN
Summary of the method: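 Dose-response IC50 determined from reduction in resorufin signal rate (544/590 nm, 1-2 h), with 30 min compound preincubation at 37 °C and 1 mM benzylamine as substrate.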

[1] = target: T2, recombinant human MAO-A (monoamine oxidase-A) (Homo sapiens, UniProt P21397); experiment: Activity on recombinant human MAO-A, method similar to the VAP-1 assay; conditions: substrate 0.5 mM tyramine; read-out: Inhibitory Activity (IC50, nM) MAO-A
T2 construct: purchased Sigma-Aldrich
T2 sequence (P21397 1-527): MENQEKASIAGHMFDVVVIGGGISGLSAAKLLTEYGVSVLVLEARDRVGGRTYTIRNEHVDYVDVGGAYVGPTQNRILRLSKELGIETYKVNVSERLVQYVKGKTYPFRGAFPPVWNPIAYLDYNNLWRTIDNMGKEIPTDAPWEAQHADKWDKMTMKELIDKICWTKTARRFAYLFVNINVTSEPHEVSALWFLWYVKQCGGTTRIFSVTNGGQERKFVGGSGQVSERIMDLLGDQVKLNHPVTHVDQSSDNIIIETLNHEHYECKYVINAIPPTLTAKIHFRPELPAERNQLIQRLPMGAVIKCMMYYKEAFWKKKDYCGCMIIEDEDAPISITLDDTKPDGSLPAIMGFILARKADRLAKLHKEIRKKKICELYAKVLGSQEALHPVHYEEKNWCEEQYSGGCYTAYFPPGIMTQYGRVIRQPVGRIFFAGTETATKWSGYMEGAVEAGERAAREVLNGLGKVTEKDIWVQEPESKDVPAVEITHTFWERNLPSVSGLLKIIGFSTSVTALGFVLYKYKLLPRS
Summary of the method: (§1)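 Amplex Red/HRP coupled read-out of H2O2 with 0.5 mM tyramine for MAO-A or 1 mM benzylamine for MAO-B, following a 30-min compound–enzyme preincubation at 37° C. IC50 from percent inhibition of signal rate relative to uninhibited control.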

[2] = target: T3, recombinant human MAO-B (monoamine oxidase-B) (Homo sapiens, UniProt P27338); experiment: Activity on recombinant human MAO-B, method similar to the VAP-1 assay; conditions: substrate 1 mM benzylamine; read-out: Inhibitory Activity (IC50, nM) MAO-B
T3 construct: purchased Sigma-Aldrich
T3 sequence (P27338 1-520): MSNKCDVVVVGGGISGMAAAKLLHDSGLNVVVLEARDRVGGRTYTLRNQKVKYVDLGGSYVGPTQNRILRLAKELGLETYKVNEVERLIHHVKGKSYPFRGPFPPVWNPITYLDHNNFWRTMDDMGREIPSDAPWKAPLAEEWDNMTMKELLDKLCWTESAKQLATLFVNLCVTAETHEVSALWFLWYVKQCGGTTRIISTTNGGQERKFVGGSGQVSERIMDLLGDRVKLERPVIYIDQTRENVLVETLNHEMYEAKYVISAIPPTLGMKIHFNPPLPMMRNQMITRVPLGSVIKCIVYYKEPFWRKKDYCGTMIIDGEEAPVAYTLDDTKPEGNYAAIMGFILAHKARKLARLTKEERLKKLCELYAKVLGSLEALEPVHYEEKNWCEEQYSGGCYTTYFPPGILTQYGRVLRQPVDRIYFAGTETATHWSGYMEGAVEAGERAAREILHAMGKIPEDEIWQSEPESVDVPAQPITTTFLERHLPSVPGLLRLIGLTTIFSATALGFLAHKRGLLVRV
Summary of the method: as §1

[3] = target: T4, recombinant human DAO (diamine oxidase) (Homo sapiens, UniProt P19801); experiment: Activity on recombinant human DAO, method similar to the VAP-1 assay; conditions: substrate 1 mM putrescine; read-out: Inhibitory Activity (IC50, nM) DAO
T4 construct: purchased R&D systems
T4 sequence (P19801 20-751): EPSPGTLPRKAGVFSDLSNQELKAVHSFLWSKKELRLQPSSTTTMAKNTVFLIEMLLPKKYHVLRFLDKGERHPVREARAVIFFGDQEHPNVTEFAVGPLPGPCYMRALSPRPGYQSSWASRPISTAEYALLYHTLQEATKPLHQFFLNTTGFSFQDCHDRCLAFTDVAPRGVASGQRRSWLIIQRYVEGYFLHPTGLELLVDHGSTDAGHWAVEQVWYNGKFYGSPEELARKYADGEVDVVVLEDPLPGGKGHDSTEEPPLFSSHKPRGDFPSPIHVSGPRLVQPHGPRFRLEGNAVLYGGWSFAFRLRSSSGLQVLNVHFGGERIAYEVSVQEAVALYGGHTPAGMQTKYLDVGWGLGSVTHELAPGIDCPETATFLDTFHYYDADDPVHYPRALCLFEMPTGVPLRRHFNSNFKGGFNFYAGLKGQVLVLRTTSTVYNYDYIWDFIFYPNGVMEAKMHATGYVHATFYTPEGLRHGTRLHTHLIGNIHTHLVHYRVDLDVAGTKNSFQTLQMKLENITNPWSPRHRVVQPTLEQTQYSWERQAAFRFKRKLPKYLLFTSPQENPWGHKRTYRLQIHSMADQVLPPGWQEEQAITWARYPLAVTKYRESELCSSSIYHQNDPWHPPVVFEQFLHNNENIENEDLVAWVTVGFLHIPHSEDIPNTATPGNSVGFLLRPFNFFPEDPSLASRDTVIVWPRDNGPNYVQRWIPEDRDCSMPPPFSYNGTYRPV
Summary of the method: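 Inhibition of recombinant human diamine oxidase (DAO, R&D systems) was assessed by the same approach as the VAP-1 assay, using 1 mM putrescine as substrate. Hydrogen peroxide formed was detected through an HRP-coupled Amplex Red reaction yielding fluorescent resorufin, read at 544 nm excitation and 590 nm emission. IC50 values came from four-parameter logistic fitting in GraphPad Prism.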

With `NC/C(=C\F)Cn1ncn(Cc2ccc(-c3ccc(=O)n(C4CC4)c3)s2)c1=O` [Example 195, 5-[5-({1-[(2E)-2-(aminomethyl)-3-fluoroprop-2-en-1-yl]-5-oxo-1,5-dihydro-4H-1,2,4-triazol-4-yl}methyl)thiophen-2-yl]-1-cyclopropylpyridin-2(1H)-one] the IC50 (recombinant human VAP-1) was 1.6 nM, the IC50 [1] was greater than 100000 nM and the IC50 [2] was 2300 nM. It also gave an IC50 [3] of 710 nM.

For `CCS(=O)(=O)c1ccc(-c2ccc(Cn3cnn(C/C(=C/F)CN)c3=O)s2)cc1` [Example 196, 2-[(2E)-2-(aminomethyl)-3-fluoroprop-2-en-1-yl]-4-({5-[4-(ethylsulfonyl)phenyl]thiophen-2-yl}methyl)-2,4-dihydro-3H-1,2,4-triazol-3-one], the IC50 (recombinant human VAP-1) was 2.3 nM, the IC50 [1] was greater than 100000 nM and the IC50 [2] was 4700 nM. For the same molecule, the IC50 [3] was 230 nM.

For `NC/C(=C\F)Cn1ncn(Cc2ccc(-c3ccc(S(=O)(=O)NC4CC4)cc3)s2)c1=O` [Example 197, 4-[5-({1-[(2E)-2-(aminomethyl)-3-fluoroprop-2-en-1-yl]-5-oxo-1,5-dihydro-4H-1,2,4-triazol-4-yl}methyl)thiophen-2-yl]-N-cyclopropylbenzenesulfonamide], the IC50 (recombinant human VAP-1) was 2 nM, the IC50 [1] was greater than 100000 nM and the IC50 [2] was 2700 nM. For the same molecule, the IC50 [3] was 340 nM.

`NC/C(=C\F)Cn1ncn(Cc2ccc(-c3ccc(N4CCNCC4)nc3)s2)c1=O` [Example 199, 2-[(2E)-2-(aminomethyl)-3-fluoroprop-2-en-1-yl]-4-({5-[6-(piperazin-1-yl)pyridin-3-yl]thiophen-2-yl}methyl)-2,4-dihydro-3H-1,2,4-triazol-3-one] showed an IC50 (recombinant human VAP-1) of 8.8 nM, an IC50 [1] greater than 100000 nM and an IC50 [2] greater than 100000 nM. For the same molecule, the IC50 [3] was 1100 nM.

In the case of `CS(=O)(=O)c1ccc(-c2csc(Cn3cnn(C/C(=C/F)CN)c3=O)c2)cc1` [Example 201], the IC50 (recombinant human VAP-1) is reported as 1.5 nM, the IC50 [1] is reported as greater than 100000 nM and the IC50 [2] is reported as 3000 nM. The IC50 [3] was 450 nM.

For `NC/C(=C\F)Cn1ncn(Cc2cc3cc(-c4ccc5c(c4)OCO5)ccc3s2)c1=O` [Example 207, 2-[(2E)-2-(aminomethyl)-3-fluoroprop-2-en-1-yl]-4-{[5-(1,3-benzodioxol-5-yl)-1-benzothiophen-2-yl]methyl}-2,4-dihydro-3H-1,2,4-triazol-3-one], the IC50 (recombinant human VAP-1) was 3.8 nM, the IC50 [1] was greater than 100000 nM and the IC50 [2] was 64 nM. The IC50 [3] was 2800 nM.

`CS(=O)(=O)c1ccc(-c2ccc3sc(Cn4cnn(C/C(=C/F)CN)c4=O)cc3c2)cc1` [Example 208, 2-[(2E)-2-(aminomethyl)-3-fluoroprop-2-en-1-yl]-4-({5-[4-(methylsulfonyl)phenyl]-1-benzothiophen-2-yl}methyl)-2,4-dihydro-3H-1,2,4-triazol-3-one] showed an IC50 (recombinant human VAP-1) of 1.2 nM, an IC50 [1] greater than 100000 nM and an IC50 [2] of 26000 nM. For the same molecule, the IC50 [3] was 780 nM.

Molecule `NC/C(=C\F)Cn1ncn(Cc2cc3cc(-c4ccc(C(F)(F)F)nc4)ccc3s2)c1=O` [Example 209, 2-[(2E)-2-(aminomethyl)-3-fluoroprop-2-en-1-yl]-4-({5-[6-(trifluoromethyl)pyridin-3-yl]-1-benzothiophen-2-yl}methyl)-2,4-dihydro-3H-1,2,4-triazol-3-one] has an IC50 (recombinant human VAP-1) of 2.3 nM, an IC50 [1] greater than 100000 nM and an IC50 [2] of 990 nM. For the same molecule, the IC50 [3] was 1500 nM.

`Cc1cc(-c2ccc3sc(Cn4cnn(C/C(=C/F)CN)c4=O)cc3c2)cc2c1NC(=O)CC2` [Example 210, 6-[2-({1-[(2E)-2-(aminomethyl)-3-fluoroprop-2-en-1-yl]-5-oxo-1,5-dihydro-4H-1,2,4-triazol-4-yl}methyl)-1-benzothiophen-5-yl]-8-methyl-3,4-dihydroquinolin-2(1H)-one] showed an IC50 (recombinant human VAP-1) of 1.7 nM, an IC50 [1] greater than 100000 nM and an IC50 [2] of 9200 nM. For the same molecule, the IC50 [3] was 590 nM.

Work on `CN1C(=O)CCc2cc(-c3ccc4sc(Cn5cnn(C/C(=C/F)CN)c5=O)cc4c3)ccc21` [Example 211, 6-[2-({1-[(2E)-2-(aminomethyl)-3-fluoroprop-2-en-1-yl]-5-oxo-1,5-dihydro-4H-1,2,4-triazol-4-yl}methyl)-1-benzothiophen-5-yl]-1-methyl-3,4-dihydroquinolin-2(1H)-one] yielded an IC50 (recombinant human VAP-1) of 1.9 nM, an IC50 [1] of 49000 nM and an IC50 [2] of 7900 nM. It also gave an IC50 [3] of 1000 nM.

`CN(C)c1ccc(-c2ccc3sc(Cn4cnn(C/C(=C/F)CN)c4=O)cc3c2)cn1` [Example 212, 2-[(2E)-2-(aminomethyl)-3-fluoroprop-2-en-1-yl]-4-({5-[6-(dimethylamino)pyridin-3-yl]-1-benzothiophen-2-yl}methyl)-2,4-dihydro-3H-1,2,4-triazol-3-one] showed an IC50 (recombinant human VAP-1) of 2.3 nM, an IC50 [1] of 37000 nM and an IC50 [2] of 4900 nM. The IC50 [3] was 77000 nM.

Work on `NC/C(=C\F)Cn1ncn(Cc2cc3cc(-c4ccc(N5CCNCC5)cc4)ccc3s2)c1=O` [Example 213, 2-[(2E)-2-(aminomethyl)-3-fluoroprop-2-en-1-yl]-4-({5-[4-(piperazin-1-yl)phenyl]-1-benzothiophen-2-yl}methyl)-2,4-dihydro-3H-1,2,4-triazol-3-one] yielded an IC50 (recombinant human VAP-1) of 3 nM, an IC50 [1] greater than 100000 nM and an IC50 [2] of 5200 nM. It also gave an IC50 [3] of 1500 nM.
